Test results published in patent publication EP4361137A1, “PRUNE1 INHIBITORS AND THERAPEUTIC USE THEREOF” (CEINGE Biotecnologie Avanzate Franco Salvatore s.c. a r.l., priority 2022, dated 2024).

How the values were obtained:
MMTV-Prune1/Wnt1 cells = test: Real-time cell proliferation assay (cell index, xCELLigence); type: cell-based, murine; details: 10 µM and 100 µM, dose dependent
Procedure: (§1) D425.MED and MMTV-Prune1/Wnt1 cells were plated and treated with increasing concentrations of LEO-AA7.5(S)T for 24 hours. Water-treated cells were used as negative control for the experiments.
Cellular proliferation rates were determined with the xCELLigence system (Roche). D425-MED, MATH-Prune1/TP53-/- and MMTV-Prune1/Wnt1 cells (8 × 10^3) were treated with increasing concentrations of LEO-AA7.5(S)T, harvested, and then added to a single well of an xCELLigence E-plate 16. The proliferation rates were determined at 2-min intervals by measuring the impedance changes across the electrodes at the bottoms of the wells. These cell index values were calculated by the xCELLigence RTCA software. with vehicle-treated cells were the negative control. Impedance was measured every 2 min over 24 hours. The IC50 values were calculated through nonlinear regression analysis performed with Graph Pad Prism 9 ([inhibitor] vs. response (three parameters). Data are means ± SD of three independent experiments.

human PRUNE1 = test: qPCR of PRUNE1 mRNA in D425-MED cells; type: cell-based; details: 10 µM, 24 hours, relative to vehicle (2^-ΔΔCt)
Procedure: as §1
RNA samples were extracted using TRIzol RNA Isolation Reagent (15596026, Invitrogen), according to the manufacturer instructions. Reverse transcription was performed with 5× All-In-One RT MasterMix (g592; ABM), according to the manufacturer instructions. The reverse transcription products (cDNA) were amplified by qRT-PCR using an RT-PCR system (7900; Applied Biosystems, Foster City, CA, USA). The cDNA preparation was through the cycling method, by incubating the complete reaction mix as follows: cDNA reactions: (37 °C for 10 min and 60 °C for 15 min); Heat-inactivation: 95 °C for 3 min; Hold stage: 4 °C. The targets were detected with the SYBR green approach, using BrightGreen BlasTaq 2× PCR MasterMix (G895; ABM). Human ACTB was used as the housekeeping gene to normalize the quantification cycle (Cq) values of the other genes. […] Relative expression of the target genes was determined using the 2^-ΔΔCq method, as the fold increase compared with the controls. […]

[1] = test system: MATH1-Prune1/TP53-/- cells; test: Mouse cytokine antibody array on conditioned media; type: cell-based, murine; details: 10 µM, 24 hours; n.61 cytokines measured
Procedure: The conditioned media collected from three different vehicle- or 10 µM LEO-AA7.5(S)T-treated MATH1-Prune1/TP53-/- cells after 24 hours were pooled. The relative levels of cytokines in the pooled conditioned media and murine sera were measured (RayBio C-Series Mouse Cytokine Antibody Array C3 [AAM-CYT-3-2]), according to the manufacturer protocol. Densitometric analysis was carried out using the Quantity One software (BioRad). Expression levels were normalized to the levels of the positive control spots (contained within the membrane). For each cytokine, the mean ±standard error was determined.

Caspase 3 = Caspase 3 activity assay; type: cell-based, murine; details: MATH1-Prune1/TP53-/- cells
Procedure: MATH1-Prune1/TP53-/- cells (3×10^4) were plated in 96-well plate and treated with different doses of Vincristine (i.e., 0.3 nM or 0.03 nM) alone or combined to 10 µM LEO-AA7.5(S)T. Vehicle- (0.01% DMSO) treated cells were used as negative controls. Staurosporine-treated cells (1 µM) were used as positive controls of the assays. The assay was performed by using Caspase-3 Activity Assay Kit (#5723, Cell Signaling), by following the manufacture's instruction. Briefly, after 24 hours from the treatment started, cell medium was removed and 30 ul of cell lysis buffer (PI-7018, Cell Signaling) were added. The plate was then incubated for 5 minutes on ice. Later, 25 ul of cell lysate were mixed with 200 ul substrate solution B (#11734S, Cell Signaling) in a black 96 well plate. Fluorescence was detected by using a multimode plate reader (Enspire, 2300, PerkinElmer). The positive control AMC (25 µl, #11735S, Cell Signaling) mixed with 200 ul 1X assay buffer A (#11736S, Cell Signaling) was used as positive control of fluorescence.

J774A.1 macrophages = test: M2-polarization of macrophages grown in conditioned media (qPCR); type: cell-based, murine; details: macrophages 48 h in conditioned media of MMTV-Prune1-Wnt1 cells treated with 10 µM
Procedure: The effects of MMTV-Prune-1/Wnt1 cells upon treatment with LEO-AA7.5(S)T were analyzed for M2-polarization of J774A. 1 murine macrophages. Briefly 1 ×10^6 MMTV-Prune-1/Wnt1 cells were resuspended in 10 mL complete DMEM medium, plated into 10-cm-diameter plates, treated with 10 µM LEO-AA7.5(S)T or water as vehicle control, and grown at 37 °C for 24 h. Then the conditioned media were collected. One day before culture in the conditioned media, J774A.1 macrophages were plated into 10-cm-diameter plates. At the time of the culturing in conditioned media, macrophages were at 50% confluence, and after 6 h of starvation in serum-free medium, the macrophages were grown in conditioned media for 48 h. Each experimental point was carried out in triplicate. After the culturing in the conditioned media, the macrophages were washed with PBS, collected, and used for RNA extraction.
RNA samples were extracted using TRIzol RNA Isolation Reagent (15596026, Invitrogen), according to the manufacturer instructions. […] The targets were detected with the SYBR green approach, using BrightGreen BlasTaq 2× PCR MasterMix (G895; ABM). Human ACTB was used as the housekeeping gene to normalize the quantification cycle (Cq) values of the other genes. […] Relative expression of the target genes was determined using the 2^-ΔΔCq method, as the fold increase compared with the controls. […]

Acute toxicity in vivo = test: Acute toxicity in vivo; design: species or system FVB mice; details: for hepatotoxicity or nephrotoxicity (glutamate-pyruvate transaminase 1, creatinine blood levels, blood urea nitrogen): HCl salt
Procedure: The toxicity of LEO-AA7.5(S)T was determined with 4-week-old FVB mice grouped according to body weight. Escalating doses of LEO-AA7.5(S)T (60mg or 120mg/kg/day) or vehicle (water) were administered intraperitoneally, daily for 12 days. At sacrifice, the blood and organs were collected and evaluated. Haematological and biochemical markers of hepatic and renal functions were evaluated. Data are expressed as means from four mice within each treatment group.

[2] = 60 and 120 mg/kg intraperitoneally, daily for 12 days

With `COc1ccc(CNc2ncnc(N3CCC[C@H](CO)C3)n2)cc1.Cl` [LEO-AA7.5(S)T, (S)-(1-(4-((4-methoxybenzyl)amino)-1,3,5-triazin-2-yl)piperidin-3-yl)methanol HCl salt] the proliferation rate (MMTV-Prune1/Wnt1 cells) was “reduction”, the “endogenous Prune1 mRNA” value (human PRUNE1) was 0.3 fold and the “number of cytokines/ chemokines significantly downregulated in the conditioned media” value [1] was 10. The “Caspase 3 activation, combination with Vincristine” value (Caspase 3; 10 µM plus 0.03 nM Vincristine) was “promotes Caspase 3 activation”, the “Caspase 3 activation, single agent” value (Caspase 3; Vincristine 0.3 nM and 0.03 nM, LEO-AA7.5(S)T 10 µM, 24 hours) was “does not induce apoptotic action” and the “levels of M2-polarized marker genes in macrophages” value (J774A.1 macrophages) was “decreased levels”. For the same molecule, the “liver, spleen and kidney weight, treated vs controls” value (Acute toxicity in vivo; 60mg or 120mg/kg/day intraperitoneally for 12 days) was “no decrease”, the “haematological parameters (e.g. white blood cell count)” value (Acute toxicity in vivo; [2]) was “no significant variations” and the immediate toxicity effects (Acute toxicity in vivo; [2]) was “no immediate toxicity effects”. For the same molecule, the “hepatotoxicity or nephrotoxicity (glutamate-pyruvate transaminase 1, creatinine blood levels, blood urea nitrogen)” value (Acute toxicity in vivo; [2]) was “absence of drug-induced hepatotoxicity and renal failure” and the “hepatotoxicity or nephrotoxicity (glutamate-pyruvate transaminase 1, creatinine blood levels, blood urea nitrogen)” value (Acute toxicity in vivo; 60 and 120 mg/kg intraperitoneally, daily for 12 days, listed as (S)-(1-(4-((4-methoxybenzyl)amino)-1,3,5-triazin-2-yl)piperidin-3-yl)methanol HC) was “no signs of hepatotoxicity or nephrotoxicity”.
